Results: patent US8778871B2 (Takeda Pharmaceutical Company Limited, priority 2004, dated 2014)
Starred links: 1 amine or outer side, 2 acyl side, 3 side chain; linkers in the order of their positions; H or OH if unused. Non-standard residues stand in square brackets, D forms with d. Residues, ends and D or L forms follow the SMILES beside them. No end group written: not given here. *: point of attachment. X9 = CC(C)C[C@H](NCCN*)C(=O)N[C@@H](CCCNC(=N)N)C(=O)N[C@@H](Cc1ccccc1)C(N)=O; X1 = NC(=O)C[C@@H](C(=O)[*:2])N(C[C@@H](N)Cc1ccc(O)cc1)[*:1]; Propanoyl(3-indol-3-yl) = O=C(CCc1c[nH]c2ccccc12)*; Butyryl(4-indol-3-yl) = O=C(CCCc1c[nH]c2ccccc12)*; Arg(Me) = CNC(=N)NCCC[C@H](N)C(=O)O; 4Pal = N[C@@H](Cc1ccncc1)C(=O)O; d3Pal = N[C@H](Cc1cccnc1)C(=O)O; d4Pal = N[C@H](Cc1ccncc1)C(=O)O; Cha = N[C@@H](CC1CCCCC1)C(=O)O; Cbz = O=C(OCc1ccccc1)*; azaGly = NNC(=O)O

Legend:
hOT7T175 [1] = biological target: T1, hOT7T175 (Homo sapiens, UniProt Q969F8); test: Intracellular Ca ion level-increasing activity using FLIPR (180 seconds; specific activity to Metastin (1-54)); assay type: cell-based; settings: hOT7T175/CHO, change in intracellular calcium ion level for 180 seconds, Tables 21-23
T1 construct: expressed in transfected cells
T1 sequence (Q969F8 whole entry L364H): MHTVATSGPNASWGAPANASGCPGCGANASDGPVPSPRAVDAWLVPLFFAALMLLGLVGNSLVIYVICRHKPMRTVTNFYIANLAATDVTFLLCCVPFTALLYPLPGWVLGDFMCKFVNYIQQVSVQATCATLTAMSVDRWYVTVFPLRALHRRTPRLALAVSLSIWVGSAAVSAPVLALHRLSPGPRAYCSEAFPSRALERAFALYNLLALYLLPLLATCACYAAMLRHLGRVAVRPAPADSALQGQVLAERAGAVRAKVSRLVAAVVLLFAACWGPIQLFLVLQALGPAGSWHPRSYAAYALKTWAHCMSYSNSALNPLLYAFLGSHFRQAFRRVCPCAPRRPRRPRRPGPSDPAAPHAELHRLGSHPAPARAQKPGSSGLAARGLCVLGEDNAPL

hOT7T175 [2] = biological target: T2, hOT7T175 (Homo sapiens, UniProt Q969F8, L364H); assay type: cell-based; settings: hOT7T175/CHO, FLIPR, evaluation for 40 seconds after initiation of the reaction
T2 construct: expressed in transfected cells
T2 sequence (Q969F8 whole entry L364H): as above
Experimental: The intracellular Ca ion level-increasing activity was measured using FLIPR as in TEST EXAMPLE 2.

| Compound | intracellular Ca ion level-increasing activity [specific activity to Metastin (1-54)] (hOT7T175 [1]) | Specific Act. (EC50/MS10 EC50) (hOT7T175 [2]) |
| --- | --- | --- |
| [dY][dW]ASF[azaGly]L[Arg(Me)]W-NH2 [Compound No. 503] | 10 | 0.4 |
| D-Tyr-D-Pya(4)-Ser-Phe-AzaGly-Leu-Arg(Me)-Trp-NH2 [Compound No. 494] | ⅓ | 8.6 |
| Isobutyryl-Phe-AzaGly-Leu-Arg(Me)-Trp-NH2 [Compound No. 438] | 3 | 3.0 |
| CNC(=N)NCCC[C@H](NC(=O)[C@H](CC(C)C)NC(=O)NNC(=O)[C@H](Cc1ccccc1)NC(=O)[C@H](CO)NC(=O)[C@H](CC(N)=O)NC(=O)CCc1c[nH]c2ccccc12)C(=O)N[C@@H](Cc1ccccc1)C(N)=O [Compound No. 260, 3-(3-Indolyl)propionyl-Asn-Ser-Phe-AzaGly-Leu-Arg(Me)-Phe-NH2] ({Propanoyl(3-indol-3-yl)}-NSF[azaGly]L[Arg(Me)]F-NH2) | 5 | 4.3 |
| Pyridazine-4-carbonyl-Phe-AzaGly-Leu-Arg(Me)-Trp-NH2 [Compound No. 480] | 1 | 8.3 |
| CNC(=N)NCCC[C@H](NC(=O)[C@H](CC(C)C)NC(=O)NNC(=O)[C@H](Cc1ccccc1)NC(=O)[C@@H](NC(=O)[C@H](CC(N)=O)NC(=O)[C@H](Cc1c[nH]c2ccccc12)NC(=O)[C@@H](CC(N)=O)NC(=O)[C@H](N)Cc1ccc(O)cc1)[C@@H](C)O)C(=O)N[C@@H](Cc1ccccc1)C(N)=O [Compound No. 298, D-Tyr-D-Asn-Trp-Asn-Thr-Phe-AzaGly-Leu-Arg(Me)-Phe-NH2] (H-[dY][dN]WNTF[azaGly]L[Arg(Me)]F-NH2) | 5 | 1.8 |
| Pyrrole-3-carbonyl-Phe-AzaGly-Leu-Arg(Me)-Trp-NH2 [Compound No. 474] | 5 | 3.2 |
| CNC(=N)NCCC[C@H](NC(=O)[C@H](CC(C)C)NC(=O)NNC(=O)[C@H](Cc1ccccc1)NC(=O)[C@H](CO)NC(=O)[C@H](CC(N)=O)NC(=O)[C@H](Cc1ccncc1)NC(=O)[C@@H](CC(N)=O)NC(=O)[C@H](N)Cc1ccc(O)cc1)C(=O)N[C@@H](Cc1ccccc1)C(N)=O [Compound No. 303, D-Tyr-D-Asn-Pya(4)-Asn-Ser-Phe-AzaGly-Leu-Arg(Me)-Phe-NH2] (H-[dY][dN][4Pal]NSF[azaGly]L[Arg(Me)]F-NH2) | 5 | 6.9 |
| CNC(=N)NCCC[C@H](NC(=O)[C@H](CC(C)C)NC(=O)NNC(=O)[C@H](Cc1ccccc1)NC(=O)[C@H](CO)NC(=O)[C@H](CC(N)=O)NC(=O)[C@H](CC1CCCCC1)NC(=O)[C@@H](CC(N)=O)NC(=O)[C@H](N)Cc1ccncc1)C(=O)N[C@@H](Cc1ccccc1)C(N)=O [Compound No. 306, D-Pya(4)-D-Asn-Cha-Asn-Ser-Phe-AzaGly-Leu-Arg(Me)-Phe-NH2] (H-[d4Pal][dN][Cha]NSF[azaGly]L[Arg(Me)]F-NH2) | 2 |  |
| CNC(=N)NCCC[C@H](NC(=O)[C@H](CC(C)C)NC(=O)NNC(=O)[C@H](Cc1ccccc1)NC(=O)[C@H](CO)NC(=O)[C@H](CC(N)=O)NC(=O)[C@@H](N)Cc1c[nH]c2ccccc12)C(=O)N[C@@H](Cc1ccccc1)C(N)=O [Compound No. 271, Trp-Asn-Ser-Phe-AzaGly-Leu-Arg(Me)-Phe-NH2] (H-WNSF[azaGly]L[Arg(Me)]F-NH2) | 1 |  |
| CNC(=N)NCCC[C@H](NC(=O)[C@H](CC(C)C)NC(=O)NNC(=O)[C@H](Cc1ccccc1)NC(=O)[C@H](CO)NC(=O)[C@H](CC(N)=O)NC(=O)[C@H](CC1CCCCC1)NC(=O)[C@@H](Cc1ccc(O)cc1)NC(=O)[C@H](N)Cc1cccnc1)C(=O)N[C@@H](Cc1ccccc1)C(N)=O [Compound No. 291, D-Pya(3)-D-Tyr-Cha-Asn-Ser-Phe-AzaGly-Leu-Arg(Me)-Phe-NH2] (H-[d3Pal][dY][Cha]NSF[azaGly]L[Arg(Me)]F-NH2) | 2 |  |
| Cbz-[azaGly]L[Arg(Me)]W-NH2 [Compound No. 374] | ⅓ |  |
| Indole-3-acetyl-Phe-AzaGly-Leu-Arg(Me)-Phe-NH2 [Compound No. 345] | 2 |  |
| Z-Phe-AzaGly-Leu-Arg(Me)-Trp-NH2 [Compound No. 367] | ⅕ |  |
| 5-Methylnicotinoyl-Phe-AzaGly-Leu-Arg(Me)-Trp-NH2 [Compound No. 444] | ⅓ |  |
| CNC(=N)NCCC[C@H](NC(=O)[C@H](CC(C)C)NC(=O)NNC(=O)[C@H](Cc1ccccc1)NC(=O)[C@H](CO)NC(=O)[C@H](CC(N)=O)NC(=O)[C@H](CC1CCCCC1)NC(=O)[C@@H](CC(N)=O)NC(=O)[C@H](N)Cc1cccnc1)C(=O)N[C@@H](Cc1ccccc1)C(N)=O [Compound No. 290, D-Pya(3)-D-Asn-Cha-Asn-Ser-Phe-AzaGly-Leu-Arg(Me)-Phe-NH2] (H-[d3Pal][dN][Cha]NSF[azaGly]L[Arg(Me)]F-NH2) | 1 |  |
| CNC(=N)NCCC[C@H](NC(=O)[C@H](CC(C)C)NC(=O)NNC(=O)[C@H](Cc1ccccc1)NC(=O)[C@H](CO)NC(=O)[C@H](CC(N)=O)NC(=O)[C@H](Cc1c[nH]c2ccccc12)NC(=O)[C@@H](Cc1c[nH]cn1)NC(=O)[C@H](N)Cc1ccc(O)cc1)C(=O)N[C@@H](Cc1ccccc1)C(N)=O [Compound No. 288, D-Tyr-D-His-Trp-Asn-Ser-Phe-AzaGly-Leu-Arg(Me)-Phe-NH2] (H-[dY][dH]WNSF[azaGly]L[Arg(Me)]F-NH2) | 1 |  |
| (2S)-2-Benzoyloxy-3-phenylpropionyl-AzaGly-Leu-Arg(Me)-Trp-NH2 [Compound No. 380] | 5 |  |
| CC(C)C[C@H](NCCNC(=O)[C@H](Cc1ccccc1)NC(=O)[C@H](CO)NC(=O)[C@H](CC(N)=O)NC(=O)[C@H](Cc1c[nH]c2ccccc12)NC(=O)[C@H](CC(N)=O)NC(=O)[C@@H](N)Cc1ccc(O)cc1)C(=O)N[C@@H](CCCNC(=N)N)C(=O)N[C@@H](Cc1ccccc1)C(N)=O [Compound No. 261, Tyr-Asn-Trp-Asn-Ser-Phe-GlyΨ(CH2NH)Leu-Arg-Phe-NH2] (H-YNWNSF-X9) | 1 |  |
| 4-Pyridinecarbonyl-Phe-AzaGly-Leu-Arg(Me)-Nal(2)-NH2 [Compound No. 461] | ⅓ |  |
| CNC(=N)NCCC[C@H](NC(=O)[C@H](CC(C)C)NC(=O)NNC(=O)[C@H](Cc1ccccc1)NC(=O)[C@H](CO)NC(=O)[C@H](CC(N)=O)NC(=O)[C@@H](NC(=O)[C@@H](CC(N)=O)NC(=O)[C@H](N)Cc1ccc(O)cc1)[C@@H](C)O)C(=O)N[C@@H](Cc1ccccc1)C(N)=O [Compound No. 284, D-Tyr-D-Asn-Thr-Asn-Ser-Phe-AzaGly-Leu-Arg(Me)-Phe-NH2] (H-[dY][dN]TNSF[azaGly]L[Arg(Me)]F-NH2) | 1 |  |
| CNC(=N)NCCC[C@H](NC(=O)[C@H](CC(C)C)NC(=O)NNC(=O)[C@H](Cc1ccccc1)NC(=O)[C@H](CO)NC(=O)[C@H](CC(N)=O)NC(=O)CCCc1c[nH]c2ccccc12)C(=O)N[C@@H](Cc1ccccc1)C(N)=O [Compound No. 267, 4-(3-Indolyl)butyryl-Asn-Ser-Phe-AzaGly-Leu-Arg(Me)-Phe-NH2] ({Butyryl(4-indol-3-yl)}-NSF[azaGly]L[Arg(Me)]F-NH2) | 2 |  |
| Benzoyl-AzaPhe-AzaGly-Leu-Arg(Me)-Trp-NH2 [Compound No. 431] | 1 |  |
| CNC(=N)NCCC[C@H](NC(=O)[C@H](CC(C)C)NC(=O)NNC(=O)[C@H](Cc1ccccc1)NC(=O)[C@H](CO)NC(=O)[C@H](CC(N)=O)NC(=O)[C@H](Cc1c[nH]c2ccccc12)NC(=O)[C@H](CC(N)=O)NC[C@@H](N)Cc1ccc(O)cc1)C(=O)N[C@@H](Cc1ccccc1)C(N)=O [Compound No. 299, TyrΨ(CH2NH)Asn-Trp-Asn-Ser-Phe-AzaGly-Leu-Arg(Me)-Phe-NH2] (H-[X1]WNSF[azaGly]L[Arg(Me)]F-NH2) | 5 |  |
| 2-Pyridinecarbonyl-Phe-AzaGly-Leu-Arg(Me)-Trp-NH2 [Compound No. 435] | 10 |  |
| 3-(3-Pyridyl)propionyl-Phe-AzaGly-Leu-Arg(Me)-Phe-NH2 [Compound No. 340] | ⅕ |  |
| CNC(=N)NCCC[C@H](NC(=O)[C@H](CC(C)C)NC(=O)NNC(=O)[C@H](Cc1ccccc1)NC(=O)[C@H](CO)NC(=O)[C@H](CC(N)=O)NC(=O)[C@H](Cc1c[nH]c2ccccc12)NC(=O)[C@H](N)Cc1cccnc1)C(=O)N[C@@H](Cc1ccccc1)C(N)=O [Compound No. 289, D-Pya(3)-Trp-Asn-Ser-Phe-AzaGly-Leu-Arg(Me)-Phe-NH2] (H-[d3Pal]WNSF[azaGly]L[Arg(Me)]F-NH2) | 1 |  |
| Phenylacetyl-Phe-AzaGly-Leu-Arg(Me)-Trp-NH2 [Compound No. 440] | 1 |  |
| (2R)-2-Benzoyloxy-3-phenylpropionyl-AzaGly-Leu-Arg(Me)-Trp-NH2 [Compound No. 412] | ⅕ |  |
